Reference: PubChem BioAssay AID977620 (Broad Institute, 2014)
Calls of active or inactive are those of the source.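 The calls were made as follows: active = signal-lowering curve whose fitted AC50 is at or under twice the top valid dose of that sample; inconclusive = flat fit with a moderate drop, or a poor fit; inactive = the rest.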

Tested on: not listed separately
Experiment: A549 cell cytotoxicity, dose response, cytotoxicity control, CellTiter-Glo luminescence, dry powder, set 14 (AID 977620)
Conditions: A549 viability, CellTiter-Glo ATP luminescence, 72 h; at 30 µM (top of the series)

Question: With COc1ccc(NC(=O)c2cc(S(=O)(=O)N(C)C)ccc2N2CCCC2)cc1 as the molecule, how does the activity change, negative = cytotoxicity read?
Answer: -10.6% (inactive)

Question: Which activity change, negative = cytotoxicity does the source give for CN(C)S(=O)(=O)c1ccc(N2CCCC2)c(C(=O)N2CCOCC2)c1 here?
Answer: -6.88% (inactive)

Question: Which activity change, negative = cytotoxicity does the source give for CN(C)S(=O)(=O)c1ccc(N2CCCC2)c(C(=O)Nc2cccc(F)c2)c1 here?
Answer: -13.3% (inactive)

Question: Which activity change, negative = cytotoxicity does the source give for CN(C)S(=O)(=O)c1ccc(N2CCCC2)c(C(=O)NC2CCCCC2)c1 here?
Answer: -6.42% (inactive)

Question: For Cc1nnc(NC(=O)c2cc(S(=O)(=O)N(C)C)ccc2N2CCCC2)s1, which activity change, negative = cytotoxicity is on record?
Answer: -7.41% (inactive)

Question: With Cc1cnc(NC(=O)c2cc(S(=O)(=O)N(C)C)ccc2N(C)C)s1 as the molecule, how does the activity change, negative = cytotoxicity read?
Answer: -11.3% (inactive)

Question: For COc1ccccc1NC(=O)c1cc(S(=O)(=O)N(C)C)ccc1N1CCCC1, which activity change, negative = cytotoxicity is on record?
Answer: -6.88% (inactive)

Question: Which activity change, negative = cytotoxicity does the source give for Cc1cnc(NC(=O)c2cc(S(=O)(=O)N(C)C)ccc2N2CCNCC2)s1 here?
Answer: -10.1% (inactive)

Question: Which activity change, negative = cytotoxicity does the source give for Cc1nc(NC(=O)c2cc(S(=O)(=O)N(C)C)ccc2N2CCCC2)n[nH]1 here?
Answer: -5.15% (inactive)

Question: For CN(C)C(=O)c1cc(S(=O)(=O)N(C)C)ccc1N1CCCC1, which activity change, negative = cytotoxicity is on record?
Answer: -2.1% (inactive)

Question: Which activity change, negative = cytotoxicity does the source give for CN(C)CCCN(Cc1cc2ccccc2[nH]c1=O)C(=O)Nc1ccccc1 here?
Answer: -3.6% (inactive)

Question: Which activity change, negative = cytotoxicity does the source give for CN(C)S(=O)(=O)c1ccc(N2CCCC2)c(C(=O)Nc2ccncc2)c1 here?
Answer: -5.75% (inactive)

Question: With COc1cccc2sc(NC(=O)c3cc(S(=O)(=O)N(C)C)ccc3N3CCCC3)nc12 as the molecule, how does the activity change, negative = cytotoxicity read?
Answer: -3.6% (inactive)

Question: With Cc1ccccc1NC(=O)c1cc(S(=O)(=O)N(C)C)ccc1N1CCCC1 as the molecule, how does the activity change, negative = cytotoxicity read?
Answer: -11.9% (inactive)

Question: Which activity change, negative = cytotoxicity does the source give for Cc1cnc(NC(=O)c2cccc(S(=O)(=O)N(C)C)c2)s1 here?
Answer: 3.41% (inactive)

Question: With Cc1cnc(NC(=O)c2cc(S(=O)(=O)NCc3ccccc3)ccc2N2CCCC2)s1 as the molecule, how does the activity change, negative = cytotoxicity read?
Answer: -16.4% (inactive)

Question: For Cc1cnc(NC(=O)c2cc(S(=O)(=O)N(C)c3ccccc3)ccc2N2CCCC2)s1, which activity change, negative = cytotoxicity is on record?
Answer: 0.919% (inactive)

Question: With COc1ccc2nc(NC(=O)c3cc(S(=O)(=O)N(C)C)ccc3N3CCCC3)sc2c1 as the molecule, how does the activity change, negative = cytotoxicity read?
Answer: -22.2% (inactive)

Question: With CN(C)S(=O)(=O)c1ccc(N2CCCC2)c(C(=O)Nc2cccnc2)c1 as the molecule, how does the activity change, negative = cytotoxicity read?
Answer: -10% (inactive)

Question: Which activity change, negative = cytotoxicity does the source give for CN(C)CCCN(Cc1cc2ccccc2[nH]c1=O)C(=O)NCc1ccccc1 here?
Answer: -11.2% (inactive)

Question: Which activity change, negative = cytotoxicity does the source give for CN(C)S(=O)(=O)c1ccc(N2CCCC2)c(C(=O)Nc2ccccc2Cl)c1 here?
Answer: -2.95% (inactive)

Tested on: A549 viability, CellTiter-Glo ATP luminescence, 72 h
Experiment: as above
Conditions: not given

Question: Which AC50 does the source give for Cc1cnc(NC(=O)c2cc(S(=O)(=O)N(C)C)ccc2N2CCC2)s1 here?
Answer: > 60 µM (inactive)

Question: With Cc1ccc(NC(=O)c2cc(S(=O)(=O)N(C)C)ccc2N2CCCC2)cc1 as the molecule, how does the AC50 read?
Answer: > 60 µM (inactive)

Question: With Cc1cnc(NC(=O)c2cc(S(=O)(=O)N3CCCCC3)ccc2N2CCCC2)s1 as the molecule, how does the AC50 read?
Answer: > 60 µM (inactive)

Question: For CN(C)S(=O)(=O)c1ccc(N2CCCC2)c(C(=O)Nc2nccs2)c1, which AC50 is on record?
Answer: > 60 µM (inactive)

Question: Which AC50 does the source give for Cc1cnc(NC(=O)c2cc(S(=O)(=O)N3CCNCC3)ccc2N2CCCC2)s1 here?
Answer: > 60 µM (inactive)

Question: For CN(C)S(=O)(=O)c1ccc(N2CCCC2)c(C(=O)Nc2nc3ccccc3s2)c1, which AC50 is on record?
Answer: 25.9 µM

Question: For Cc1cnc(NC(=O)c2cc(S(=O)(=O)N(CC(C)C)CC(C)C)ccc2N2CCCC2)s1, which AC50 is on record?
Answer: > 60 µM (inactive)

Question: For Cc1cnc(NC(=O)c2cc(S(=O)(=O)N(C)C)ccc2N2CCCCC2)s1, which AC50 is on record?
Answer: > 60 µM (inactive)

Question: With COc1ccc2sc(NC(=O)c3cc(S(=O)(=O)N(C)C)ccc3N3CCCC3)nc2c1 as the molecule, how does the AC50 read?
Answer: > 60 µM (inactive)

Question: With Cc1cnc(NC(=O)c2cc(S(=O)(=O)N3CCOCC3)ccc2N2CCCC2)s1 as the molecule, how does the AC50 read?
Answer: 23.3 µM

Question: With CN(C)S(=O)(=O)c1ccc(N2CCCC2)c(C(=O)Nc2ccc(Br)cc2)c1 as the molecule, how does the AC50 read?
Answer: > 60 µM (inactive)

Question: Which AC50 does the source give for CN(C)S(=O)(=O)c1ccc(N2CCCC2)c(C(=O)Nc2ccccc2)c1 here?
Answer: > 60 µM (inactive)

Question: With CCN(CC)c1ccc(S(=O)(=O)N(C)C)cc1C(=O)Nc1ncc(C)s1 as the molecule, how does the AC50 read?
Answer: > 60 µM (inactive)

Question: With Cc1cnc(NC(=O)c2cc(S(=O)(=O)N(C)C)ccc2C2CCCC2)s1 as the molecule, how does the AC50 read?
Answer: > 60 µM (inactive)

Question: Which AC50 does the source give for CCN(CC)S(=O)(=O)c1ccc(N2CCCC2)c(C(=O)Nc2ncc(C)s2)c1 here?
Answer: > 60 µM (inactive)
